Results as given in PubChem BioAssay (NCI).
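How tested: cells in 96-well plates exposed to compound for 48 hours at five concentrations. GI50 is the concentration that inhibits growth by half. TGI: total growth inhibition.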

Tests used:
Test in all cases: DTP human tumour cell line panel, 48 h
MCF7 breast = test system: MCF7 breast
SNB-19 CNS = test system: SNB-19 CNS
OVCAR-5 ovarian = test system: OVCAR-5 ovarian
UACC-257 melanoma = test system: UACC-257 melanoma
PC-3 prostate = test system: PC-3 prostate
HOP-92 NSCLC = test system: HOP-92 NSCLC
KM12 colon = test system: KM12 colon
HCT-15 colon = test system: HCT-15 colon
NCI-H226 lung = test system: NCI-H226 lung
DU-145 prostate = test system: DU-145 prostate
M14 melanoma = test system: M14 melanoma
U251 CNS = test system: U251 CNS
SW-620 colon = test system: SW-620 colon
EKVX NSCLC = test system: EKVX NSCLC
HS 578T breast = test system: HS 578T breast
UO-31 renal = test system: UO-31 renal
OVCAR-4 ovarian = test system: OVCAR-4 ovarian
HT29 colon = test system: HT29 colon
NCI-H460 lung = test system: NCI-H460 lung
A549 NSCLC = test system: A549 NSCLC
SK-OV-3 ovarian = test system: SK-OV-3 ovarian
LOX IMVI melanoma = test system: LOX IMVI melanoma
HCC-2998 colon = test system: HCC-2998 colon
K-562 leukemia = test system: K-562 leukemia
SK-MEL-5 melanoma = test system: SK-MEL-5 melanoma
SF-539 CNS = test system: SF-539 CNS
NCI/ADR-RES ovarian = test system: NCI/ADR-RES ovarian
T-47D breast = test system: T-47D breast
SK-MEL-28 melanoma = test system: SK-MEL-28 melanoma
UACC-62 melanoma = test system: UACC-62 melanoma
SF-295 CNS = test system: SF-295 CNS
OVCAR-8 ovarian = test system: OVCAR-8 ovarian
SK-MEL-2 melanoma = test system: SK-MEL-2 melanoma
MDA-MB-435 = test system: MDA-MB-435
HOP-62 NSCLC = test system: HOP-62 NSCLC
SF-268 CNS = test system: SF-268 CNS
MOLT-4 leukemia = test system: MOLT-4 leukemia
RPMI-8226 leukemia = test system: RPMI-8226 leukemia
NCI-H23 lung = test system: NCI-H23 lung
RXF 393 renal = test system: RXF 393 renal
SR leukemia = test system: SR leukemia
COLO 205 colon = test system: COLO 205 colon
IGROV1 ovarian = test system: IGROV1 ovarian
CAKI-1 renal = test system: CAKI-1 renal
A498 renal = test system: A498 renal
NCI-H522 lung = test system: NCI-H522 lung
MALME-3M melanoma = test system: MALME-3M melanoma
ACHN renal = test system: ACHN renal
MDA-MB-231 breast = test system: MDA-MB-231 breast
SN12C renal = test system: SN12C renal
OVCAR-3 ovarian = test system: OVCAR-3 ovarian
TK-10 renal = test system: TK-10 renal
HCT-116 colon = test system: HCT-116 colon
786-0 renal = test system: 786-0 renal
CCRF-CEM leukemia = test system: CCRF-CEM leukemia
SNB-75 CNS = test system: SNB-75 CNS
HL-60(TB) leukemia = test system: HL-60(TB) leukemia
BT-549 breast = test system: BT-549 breast

Work on `Cc1nc2sc(C(=O)Nc3cccc4ccccc34)c(N)c2cc1C(=O)/C=C/c1ccccc1` yielded a GI50 (MCF7 breast) of 201 nM, a TGI (MCF7 breast) of over 50000 nM and a GI50 (SNB-19 CNS) of 534 nM. It also gave a TGI (SNB-19 CNS) of over 17000 nM, a GI50 (OVCAR-5 ovarian) of 813 nM and a TGI (OVCAR-5 ovarian) of 2610 nM. The GI50 (UACC-257 melanoma) was 5090 nM, the TGI (UACC-257 melanoma) was over 30300 nM and the GI50 (PC-3 prostate) was 282 nM. It also gave a TGI (PC-3 prostate) of 4480 nM, a GI50 (HOP-92 NSCLC) of 370 nM and a TGI (HOP-92 NSCLC) of 8970 nM. It also gave a GI50 (KM12 colon) of 368 nM, a TGI (KM12 colon) of 1250 nM and a GI50 (HCT-15 colon) of 185 nM. For the same compound, the TGI (HCT-15 colon) was 789 nM, the GI50 (NCI-H226 lung) was 389 nM and the TGI (NCI-H226 lung) was 1560 nM. For the same compound, the GI50 (DU-145 prostate) was 822 nM, the TGI (DU-145 prostate) was 3600 nM and the GI50 (M14 melanoma) was 181 nM. The TGI (M14 melanoma) was 1680 nM, the GI50 (U251 CNS) was 236 nM and the TGI (U251 CNS) was 1010 nM. For the same compound, the GI50 (SW-620 colon) was 210 nM, the TGI (SW-620 colon) was 1660 nM and the GI50 (EKVX NSCLC) was 1140 nM. It also gave a TGI (EKVX NSCLC) of over 36700 nM, a GI50 (HS 578T breast) of 281 nM and a TGI (HS 578T breast) of over 50000 nM. The GI50 (UO-31 renal) was 351 nM, the TGI (UO-31 renal) was 1030 nM and the GI50 (OVCAR-4 ovarian) was 1020 nM. It also gave a TGI (OVCAR-4 ovarian) of over 15700 nM, a GI50 (HT29 colon) of 173 nM and a TGI (HT29 colon) of 1060 nM. For the same compound, the GI50 (NCI-H460 lung) was 411 nM, the TGI (NCI-H460 lung) was 2340 nM and the GI50 (A549 NSCLC) was 463 nM. For the same compound, the TGI (A549 NSCLC) was over 50000 nM, the GI50 (SK-OV-3 ovarian) was 1350 nM and the TGI (SK-OV-3 ovarian) was over 50000 nM. The GI50 (LOX IMVI melanoma) was 183 nM, the TGI (LOX IMVI melanoma) was 640 nM and the GI50 (HCC-2998 colon) was 852 nM. The TGI (HCC-2998 colon) was 1630 nM, the GI50 (K-562 leukemia) was 191 nM and the TGI (K-562 leukemia) was over 50000 nM. It also gave a GI50 (SK-MEL-5 melanoma) of 379 nM, a TGI (SK-MEL-5 melanoma) of 1690 nM and a GI50 (SF-539 CNS) of 265 nM. It also gave a TGI (SF-539 CNS) of 1160 nM, a GI50 (NCI/ADR-RES ovarian) of 173 nM and a TGI (NCI/ADR-RES ovarian) of 593 nM. It also gave a GI50 (T-47D breast) of 724 nM, a TGI (T-47D breast) of over 11000 nM and a GI50 (SK-MEL-28 melanoma) of 667 nM. For the same compound, the TGI (SK-MEL-28 melanoma) was 5910 nM, the GI50 (UACC-62 melanoma) was 235 nM and the TGI (UACC-62 melanoma) was 3800 nM. For the same compound, the GI50 (SF-295 CNS) was 514 nM, the TGI (SF-295 CNS) was 3890 nM and the GI50 (OVCAR-8 ovarian) was 534 nM. The TGI (OVCAR-8 ovarian) was over 13400 nM, the GI50 (SK-MEL-2 melanoma) was 501 nM and the TGI (SK-MEL-2 melanoma) was over 39000 nM. It also gave a GI50 (MDA-MB-435) of 116 nM, a TGI (MDA-MB-435) of 274 nM and a GI50 (HOP-62 NSCLC) of 311 nM. It also gave a TGI (HOP-62 NSCLC) of 2710 nM, a GI50 (SF-268 CNS) of 1150 nM and a TGI (SF-268 CNS) of over 32400 nM. For the same compound, the GI50 (MOLT-4 leukemia) was 251 nM, the TGI (MOLT-4 leukemia) was over 28400 nM and the GI50 (RPMI-8226 leukemia) was 140 nM. For the same compound, the TGI (RPMI-8226 leukemia) was 500 nM, the GI50 (NCI-H23 lung) was 862 nM and the TGI (NCI-H23 lung) was 4070 nM. It also gave a GI50 (RXF 393 renal) of 203 nM, a TGI (RXF 393 renal) of 776 nM and a GI50 (SR leukemia) of 164 nM. For the same compound, the TGI (SR leukemia) was over 10100 nM, the GI50 (COLO 205 colon) was 957 nM and the TGI (COLO 205 colon) was 2640 nM. The GI50 (IGROV1 ovarian) was 301 nM, the TGI (IGROV1 ovarian) was 1300 nM and the GI50 (CAKI-1 renal) was 422 nM. It also gave a TGI (CAKI-1 renal) of 1440 nM, a GI50 (A498 renal) of 337 nM and a TGI (A498 renal) of 1870 nM. The GI50 (NCI-H522 lung) was 215 nM, the TGI (NCI-H522 lung) was 2110 nM and the GI50 (MALME-3M melanoma) was 343 nM. For the same compound, the TGI (MALME-3M melanoma) was over 34900 nM, the GI50 (ACHN renal) was 304 nM and the TGI (ACHN renal) was 1250 nM. The GI50 (MDA-MB-231 breast) was 709 nM, the TGI (MDA-MB-231 breast) was 2610 nM and the GI50 (SN12C renal) was 415 nM. The TGI (SN12C renal) was 1880 nM, the GI50 (OVCAR-3 ovarian) was 181 nM and the TGI (OVCAR-3 ovarian) was 593 nM. For the same compound, the GI50 (TK-10 renal) was 1280 nM, the TGI (TK-10 renal) was 8880 nM and the GI50 (HCT-116 colon) was 174 nM. It also gave a TGI (HCT-116 colon) of 631 nM, a GI50 (786-0 renal) of 250 nM and a TGI (786-0 renal) of 979 nM. For the same compound, the GI50 (CCRF-CEM leukemia) was 178 nM, the TGI (CCRF-CEM leukemia) was over 24900 nM and the GI50 (SNB-75 CNS) was 232 nM. The TGI (SNB-75 CNS) was over 10400 nM, the GI50 (HL-60(TB) leukemia) was 353 nM and the TGI (HL-60(TB) leukemia) was 1820 nM. For the same compound, the GI50 (BT-549 breast) was 413 nM and the TGI (BT-549 breast) was 1920 nM.
